{"source": "paper PMC12951562", "about": "“SH2scan: Mapping SH2 Domain-Ligand Binding Selectivity for Inhibitors and Degraders” (Journal of Medicinal Chemistry, 2026)", "assay_in_all_cases": "biochemical", "format_in_all_cases": "binding", "key": {"SOCS1": {"molecular_target": "T1, SOCS1 (Homo sapiens, UniProt O15524)", "T1 construct": "made in house; host or cells: HEK293 (transient transfection), unpurified extract", "T1 sequence (O15524 1-211)": "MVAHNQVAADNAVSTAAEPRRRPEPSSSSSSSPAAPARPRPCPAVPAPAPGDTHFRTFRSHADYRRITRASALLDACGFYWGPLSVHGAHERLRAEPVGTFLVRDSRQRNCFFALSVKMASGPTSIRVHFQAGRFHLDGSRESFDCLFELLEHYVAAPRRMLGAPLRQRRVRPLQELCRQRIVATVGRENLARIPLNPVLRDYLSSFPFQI"}, "CRKL": {"molecular_target": "T2, CRKL (Homo sapiens, UniProt P46109)", "T2 construct": "the DNA-tagged SH2 domain concentrations used in this study were <0.1 nM; made in house; host or cells: HEK293 (transient transfection; unpurified extract)", "T2 sequence (P46109 14-102 limits assumed)": "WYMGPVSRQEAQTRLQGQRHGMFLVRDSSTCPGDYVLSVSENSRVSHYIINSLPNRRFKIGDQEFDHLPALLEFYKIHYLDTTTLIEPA"}, "PLCG1(SH2dom.C-term.)": {"molecular_target": "T3, PLCG1(SH2dom.C-term.) (Homo sapiens, UniProt P19174)", "T3 construct": "SH2dom.C-term. denotes SH2 domain closest to C-terminus of protein; made in house; host or cells: HEK293 (transient transfection, unpurified extract)", "T3 sequence (P19174 668-756 limits assumed)": "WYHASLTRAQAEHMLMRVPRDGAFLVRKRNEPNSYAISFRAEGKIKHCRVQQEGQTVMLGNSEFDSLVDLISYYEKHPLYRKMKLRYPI"}, "TXK": {"molecular_target": "T4, TXK (Homo sapiens, UniProt P42681)", "T4 construct": "made in house; host or cells: HEK293 (transient transfection), unpurified extract", "T4 sequence (P42681 1-527)": "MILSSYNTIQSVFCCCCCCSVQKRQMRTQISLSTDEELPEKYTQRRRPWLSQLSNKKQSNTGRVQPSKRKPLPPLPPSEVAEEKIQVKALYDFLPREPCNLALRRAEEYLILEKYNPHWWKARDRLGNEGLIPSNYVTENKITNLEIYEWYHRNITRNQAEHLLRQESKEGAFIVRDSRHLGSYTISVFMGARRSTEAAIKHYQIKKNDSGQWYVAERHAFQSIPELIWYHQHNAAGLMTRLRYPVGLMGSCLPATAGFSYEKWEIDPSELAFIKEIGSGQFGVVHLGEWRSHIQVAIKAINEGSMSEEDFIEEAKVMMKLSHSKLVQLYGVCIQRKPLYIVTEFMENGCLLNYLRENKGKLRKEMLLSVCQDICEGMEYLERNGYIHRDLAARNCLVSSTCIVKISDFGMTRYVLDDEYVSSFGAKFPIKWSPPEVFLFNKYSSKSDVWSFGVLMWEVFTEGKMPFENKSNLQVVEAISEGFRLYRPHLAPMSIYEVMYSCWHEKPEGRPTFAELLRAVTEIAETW"}, "VAV1": {"molecular_target": "T5, VAV1 (Homo sapiens, UniProt P15498)", "T5 construct": "made in house; host or cells: HEK293 (transient transfection), unpurified extract", "T5 sequence (P15498 1-845)": "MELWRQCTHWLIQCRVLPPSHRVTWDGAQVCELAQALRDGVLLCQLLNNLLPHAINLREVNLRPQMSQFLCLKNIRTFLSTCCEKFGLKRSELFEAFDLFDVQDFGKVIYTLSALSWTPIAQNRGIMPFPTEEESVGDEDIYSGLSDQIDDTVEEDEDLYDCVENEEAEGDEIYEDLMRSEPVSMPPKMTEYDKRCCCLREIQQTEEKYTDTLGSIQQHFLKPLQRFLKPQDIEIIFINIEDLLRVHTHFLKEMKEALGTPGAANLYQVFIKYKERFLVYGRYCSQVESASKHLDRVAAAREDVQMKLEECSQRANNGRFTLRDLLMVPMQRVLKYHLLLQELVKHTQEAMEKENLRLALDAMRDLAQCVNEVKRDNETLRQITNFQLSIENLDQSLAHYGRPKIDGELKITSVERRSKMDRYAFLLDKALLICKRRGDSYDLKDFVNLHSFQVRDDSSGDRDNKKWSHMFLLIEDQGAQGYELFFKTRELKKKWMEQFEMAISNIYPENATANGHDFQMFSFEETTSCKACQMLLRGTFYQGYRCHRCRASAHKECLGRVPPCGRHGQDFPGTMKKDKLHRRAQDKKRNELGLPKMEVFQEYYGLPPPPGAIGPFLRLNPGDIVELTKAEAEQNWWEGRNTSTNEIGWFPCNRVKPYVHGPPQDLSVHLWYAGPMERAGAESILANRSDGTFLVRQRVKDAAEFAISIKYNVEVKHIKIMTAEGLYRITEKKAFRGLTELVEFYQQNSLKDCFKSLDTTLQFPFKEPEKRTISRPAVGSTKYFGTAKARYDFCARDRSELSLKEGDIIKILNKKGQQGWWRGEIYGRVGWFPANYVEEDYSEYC"}, "VAV2": {"molecular_target": "T6, VAV2 (Homo sapiens, UniProt P52735)", "T6 construct": "made in house; host or cells: HEK293 (transient transfection), unpurified extract", "T6 sequence (P52735 1-878)": "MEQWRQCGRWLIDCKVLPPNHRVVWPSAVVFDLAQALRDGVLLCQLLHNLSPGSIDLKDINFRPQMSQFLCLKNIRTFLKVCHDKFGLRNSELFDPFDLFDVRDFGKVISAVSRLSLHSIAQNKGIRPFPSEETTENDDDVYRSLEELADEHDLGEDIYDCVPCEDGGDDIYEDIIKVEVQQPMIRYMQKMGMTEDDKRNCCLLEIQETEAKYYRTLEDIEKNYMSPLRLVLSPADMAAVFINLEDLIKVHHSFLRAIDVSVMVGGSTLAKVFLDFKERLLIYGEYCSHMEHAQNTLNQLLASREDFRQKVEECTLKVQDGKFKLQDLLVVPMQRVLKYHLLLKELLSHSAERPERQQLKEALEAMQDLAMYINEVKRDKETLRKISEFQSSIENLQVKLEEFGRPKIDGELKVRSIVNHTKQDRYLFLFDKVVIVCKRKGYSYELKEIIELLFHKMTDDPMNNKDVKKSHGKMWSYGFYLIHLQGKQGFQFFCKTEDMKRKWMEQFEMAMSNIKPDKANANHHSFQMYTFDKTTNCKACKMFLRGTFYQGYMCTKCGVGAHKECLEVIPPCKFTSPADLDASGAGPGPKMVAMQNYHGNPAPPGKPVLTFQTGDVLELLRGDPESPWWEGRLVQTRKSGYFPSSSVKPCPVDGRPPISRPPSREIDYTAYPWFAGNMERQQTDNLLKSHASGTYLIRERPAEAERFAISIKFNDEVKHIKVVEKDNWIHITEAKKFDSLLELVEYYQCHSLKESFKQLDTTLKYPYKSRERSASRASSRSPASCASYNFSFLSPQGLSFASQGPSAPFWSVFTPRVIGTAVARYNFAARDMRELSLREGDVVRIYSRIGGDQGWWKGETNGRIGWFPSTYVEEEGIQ"}, "VAV3": {"molecular_target": "T7, VAV3 (Homo sapiens, UniProt Q9UKW4)", "T7 construct": "made in house; host or cells: HEK293 (transient transfection), unpurified extract", "T7 sequence (Q9UKW4 1-847)": "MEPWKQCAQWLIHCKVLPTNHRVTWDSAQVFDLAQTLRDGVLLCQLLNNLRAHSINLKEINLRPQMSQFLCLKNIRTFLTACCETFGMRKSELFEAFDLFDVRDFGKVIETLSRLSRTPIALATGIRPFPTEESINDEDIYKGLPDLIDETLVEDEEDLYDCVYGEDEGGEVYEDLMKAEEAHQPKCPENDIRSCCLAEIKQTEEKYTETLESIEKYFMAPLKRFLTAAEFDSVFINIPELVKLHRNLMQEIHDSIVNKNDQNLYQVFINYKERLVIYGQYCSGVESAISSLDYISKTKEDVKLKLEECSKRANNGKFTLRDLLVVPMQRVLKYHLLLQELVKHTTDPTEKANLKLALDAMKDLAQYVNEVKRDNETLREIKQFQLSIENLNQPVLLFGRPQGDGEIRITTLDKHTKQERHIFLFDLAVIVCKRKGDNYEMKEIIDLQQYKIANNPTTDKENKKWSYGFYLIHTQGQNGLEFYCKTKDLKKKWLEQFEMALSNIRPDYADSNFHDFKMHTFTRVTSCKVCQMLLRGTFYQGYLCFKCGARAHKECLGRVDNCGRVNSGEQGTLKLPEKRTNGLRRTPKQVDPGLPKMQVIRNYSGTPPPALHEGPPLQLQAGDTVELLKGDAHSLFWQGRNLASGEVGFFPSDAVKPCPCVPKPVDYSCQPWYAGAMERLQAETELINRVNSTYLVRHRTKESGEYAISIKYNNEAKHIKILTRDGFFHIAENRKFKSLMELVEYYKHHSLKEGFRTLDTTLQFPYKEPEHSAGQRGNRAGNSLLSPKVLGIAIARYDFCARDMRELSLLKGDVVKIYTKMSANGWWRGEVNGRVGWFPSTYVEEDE"}, "NCK1": {"molecular_target": "T8, NCK1 (Homo sapiens, UniProt P16333)", "T8 construct": "the DNA-tagged SH2 domain concentrations used in this study were <0.1 nM; made in house; host or cells: HEK293 (transient transfection, unpurified extract)"}, "TEC": {"molecular_target": "T9, TEC (Homo sapiens, UniProt P42680)", "T9 construct": "made in house; host or cells: HEK293 (transient transfection), unpurified extract", "T9 sequence (P42680 1-631)": "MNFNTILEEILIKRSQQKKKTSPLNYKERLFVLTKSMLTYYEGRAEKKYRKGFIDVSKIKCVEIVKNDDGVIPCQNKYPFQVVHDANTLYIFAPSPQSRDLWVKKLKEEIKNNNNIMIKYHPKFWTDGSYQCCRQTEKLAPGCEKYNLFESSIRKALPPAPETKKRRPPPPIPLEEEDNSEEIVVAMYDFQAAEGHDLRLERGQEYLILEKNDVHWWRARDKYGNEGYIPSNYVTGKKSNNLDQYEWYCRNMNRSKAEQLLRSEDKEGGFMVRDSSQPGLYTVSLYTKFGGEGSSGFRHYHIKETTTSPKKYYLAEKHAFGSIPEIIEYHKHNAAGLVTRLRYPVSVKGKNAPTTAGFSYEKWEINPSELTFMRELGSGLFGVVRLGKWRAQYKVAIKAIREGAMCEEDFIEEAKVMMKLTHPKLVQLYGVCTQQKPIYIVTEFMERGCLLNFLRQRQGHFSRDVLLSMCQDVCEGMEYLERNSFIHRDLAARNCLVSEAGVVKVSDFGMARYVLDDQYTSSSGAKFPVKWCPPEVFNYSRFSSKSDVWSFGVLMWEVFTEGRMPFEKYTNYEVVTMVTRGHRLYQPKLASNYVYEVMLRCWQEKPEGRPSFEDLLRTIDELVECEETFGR"}}, "note": "Non-standard residues stand in square brackets, D forms with d. Residues, ends and D or L forms follow the SMILES beside them. pY = N[C@@H](Cc1ccc(OP(=O)(O)O)cc1)C(=O)O", "data": [{"smiles": "CC(=O)N[C@@H](CS)C(=O)N[C@@H](CCC(N)=O)C(=O)N[C@H](C(=O)N[C@@H](Cc1ccc(OP(=O)(O)O)cc1)C(=O)N[C@@H](Cc1ccccc1)C(=O)N[C@H](C(=O)N[C@@H](Cc1ccc(O)cc1)C(=O)N[C@@H](CC(=O)O)C(=O)N1CCC[C@H]1C(=O)N[C@@H](Cc1ccc(O)cc1)C(=O)N[C@@H](CO)C(=O)N[C@@H](CCC(=O)O)C(N)=O)[C@@H](C)O)C(C)C", "note": "(Ac-CQV[pY]FTYDPYSE-NH2)", "values": [{"measurement": "Kd", "setting": "SOCS1", "result": "1430 ± 426", "unit": "nM"}]}, {"smiles": "CC(=O)N[C@@H](CCC(=O)O)C(=O)N1CCC[C@H]1C(=O)NCC(=O)N1CCC[C@H]1C(=O)N[C@@H](Cc1ccc(OP(=O)(O)O)cc1)C(=O)N[C@@H](C)C(=O)N[C@@H](CCC(N)=O)C(=O)N1CCC[C@H]1C(=O)N[C@@H](CO)C(=O)N[C@H](C(=O)N[C@@H](CC(N)=O)C(=O)N[C@H](C(N)=O)[C@@H](C)O)C(C)C", "note": "(Ac-EPGP[pY]AQPSVNT-NH2)", "values": [{"measurement": "Kd", "setting": "CRKL", "result": "1200 ± 309", "unit": "nM"}]}, {"smiles": "CC(=O)N[C@@H](CC(=O)O)C(=O)N[C@H](C(=O)N[C@@H](CCC(=O)O)C(=O)N[C@H](C(=O)N[C@@H](Cc1ccc(OP(=O)(O)O)cc1)C(=O)N[C@@H](CCC(=O)O)C(=O)N[C@@H](CO)C(=O)N1CCC[C@H]1C(=O)N[C@@H](Cc1ccc(OP(=O)(O)O)cc1)C(=O)N[C@@H](C)C(=O)N[C@@H](CC(=O)O)C(=O)N1CCC[C@H]1C(=O)N[C@@H](CCC(=O)O)C(N)=O)C(C)C)[C@@H](C)O", "note": "[Ac-DTEVpYESPpYADPE-NH2] (Ac-DTEV[pY]ESP[pY]ADPE-NH2)", "values": [{"measurement": "Kd", "setting": "PLCG1(SH2dom.C-term.)", "result": "2910 ± 2740", "unit": "nM"}, {"measurement": "Kd", "setting": "TXK", "result": "4120 ± 637", "unit": "nM"}, {"measurement": "Kd", "setting": "VAV1", "result": "1400 ± 193", "unit": "nM"}, {"measurement": "Kd", "setting": "VAV2", "result": "95.1 ± 19.9", "unit": "nM"}, {"measurement": "Kd", "setting": "VAV3", "result": "163 ± 48.2", "unit": "nM"}]}, {"smiles": "CC[C@H](C)[C@H](NC(=O)[C@H](Cc1c[nH]cn1)NC(=O)[C@H](CCC(=O)O)NC(C)=O)C(=O)N[C@@H](Cc1ccc(OP(=O)(O)O)cc1)C(=O)N[C@@H](CC(=O)O)C(=O)N[C@@H](CCC(=O)O)C(=O)N[C@H](C(=O)N[C@@H](C)C(=O)N[C@@H](C)C(=O)N[C@@H](CC(=O)O)C(N)=O)C(C)C", "note": "[Ac-EHIpYDEVAAD-NH2]", "values": [{"measurement": "Kd", "setting": "NCK1", "result": "15.3 ± 5.07", "unit": "nM"}, {"measurement": "Kd", "setting": "TEC", "result": "267 ± 66.3", "unit": "nM"}]}]}
